Assay results as given in article PMC8050276, “Estradiol analogs attenuate autophagy, cell migration and invasion by direct and selective inhibition of TRPML1, independent of estrogen receptors” (Scientific Reports, 2021).

Assays:
hTRPML2 = target: T1, hTRPML2 (Homo sapiens, UniProt Q8IZK6); assay: Whole-cell patch-clamp, tetracycline-inducible HEK293 hTRPML2; assay type: cell-based; conditions: 30 µM ML-SA1, pH 7.4; read-out: TRPML2 IC50, whole-cell patch-clamp
T1 construct: host or cells: HEK293, FLP-in-Tet-On, tetracycline-induced
T1 sequence (Q8IZK6 1-566): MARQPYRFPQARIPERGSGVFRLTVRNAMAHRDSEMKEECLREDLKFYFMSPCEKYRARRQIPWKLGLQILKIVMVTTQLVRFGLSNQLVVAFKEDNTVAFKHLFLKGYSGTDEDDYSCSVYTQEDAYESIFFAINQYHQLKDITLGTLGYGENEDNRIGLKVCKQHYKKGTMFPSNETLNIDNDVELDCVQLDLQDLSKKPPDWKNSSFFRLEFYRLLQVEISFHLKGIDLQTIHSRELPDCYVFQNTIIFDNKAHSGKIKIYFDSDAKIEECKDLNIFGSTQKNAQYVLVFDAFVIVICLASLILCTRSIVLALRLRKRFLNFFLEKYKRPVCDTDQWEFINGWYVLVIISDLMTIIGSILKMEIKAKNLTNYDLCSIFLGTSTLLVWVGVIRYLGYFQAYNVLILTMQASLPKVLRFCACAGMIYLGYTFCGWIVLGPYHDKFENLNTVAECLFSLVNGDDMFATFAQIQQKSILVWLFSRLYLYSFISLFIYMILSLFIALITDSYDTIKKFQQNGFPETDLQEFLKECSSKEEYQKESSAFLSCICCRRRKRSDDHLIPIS
Protocol: Experiments were performed as described previously[20],[42]. In brief, cells were cultured on coverslips (Fisherbrand, Fisher Scientific) in complete DMEM medium with 10% FBS (Thermo Fisher). HEK293 cells expressing the desired channel protein were patch-clamped after overnight induction with tetracycline (1 µg/mL). […] The low pH bath solution contained (mM) 150 Na-Gluconate, 5 KCl, 2 CaCl2, 1 MgCl2, 10 glucose, 10 HEPES and 10 MES (pH 4.6). Whole‐cell currents were recorded using a Multiclamp 700B amplifier (Molecular Devices) with low‐pass filtering at 3 kHz. […] Current recording was done with WinWCP5.2.7 (University of Strathclyde, UK) software, and analysis was done with the help of a customized Igor pro program (WaveMetrics).

[1] = test system: TRPC3, 4, 5, 6, and 7; TRPM2, 3, and 8; TRPV1, 2, 3, and 4; assay: Fluo-4 counter screen against other TRP channels stably expressed in HEK293; assay type: cell-based; conditions: most channels; activated with known ligands
hTPC2L11A/L12A-RFP = target: T2, hTPC2L11A/L12A-RFP (Homo sapiens, UniProt Q8NHX9, L11A/L12A); assay: Fluo-4 Ca2+ assay, HEK293 stably expressing hTPC2L11A/L12A-RFP, activated with TPC2-A1-N or TPC2-A1-P; assay type: cell-based; conditions: activated by either TPC2-A1-P or TPC2-A1-N
T2 construct: expressed in transfected cells
T2 sequence (Q8NHX9 whole entry L11A/L12A): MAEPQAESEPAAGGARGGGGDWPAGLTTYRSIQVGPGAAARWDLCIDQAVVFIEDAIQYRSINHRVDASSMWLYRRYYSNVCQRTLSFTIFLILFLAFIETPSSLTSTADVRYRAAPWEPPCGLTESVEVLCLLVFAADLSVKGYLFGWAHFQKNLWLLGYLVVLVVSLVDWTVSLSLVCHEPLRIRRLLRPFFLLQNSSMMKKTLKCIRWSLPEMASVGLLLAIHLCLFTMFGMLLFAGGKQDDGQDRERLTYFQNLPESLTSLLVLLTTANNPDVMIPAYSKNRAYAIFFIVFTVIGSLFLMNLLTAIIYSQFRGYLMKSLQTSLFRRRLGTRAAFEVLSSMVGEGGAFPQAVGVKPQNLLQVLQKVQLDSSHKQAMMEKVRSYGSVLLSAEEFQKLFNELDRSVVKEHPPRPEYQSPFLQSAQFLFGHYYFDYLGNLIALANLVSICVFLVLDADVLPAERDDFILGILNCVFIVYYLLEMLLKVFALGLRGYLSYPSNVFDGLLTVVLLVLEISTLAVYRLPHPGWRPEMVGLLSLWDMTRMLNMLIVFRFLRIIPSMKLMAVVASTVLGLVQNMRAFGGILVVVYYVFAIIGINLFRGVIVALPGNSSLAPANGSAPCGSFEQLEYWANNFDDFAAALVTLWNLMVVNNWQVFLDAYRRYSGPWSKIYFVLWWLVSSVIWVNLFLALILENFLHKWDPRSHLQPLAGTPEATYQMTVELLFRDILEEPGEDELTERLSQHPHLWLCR

TRPML1 = target: T3, TRPML1 (Homo sapiens, UniProt Q9GZU1); assay: Endolysosomal patch-clamp, endo-lysosomes from MDA-MB-231 cells; assay type: cell-based; conditions: activation with ML-SA1
T3 construct: vacuolin-enlarged endo-lysosomes isolated from WT and KO1 MDA-MB-231 cells; endogenous in cells; host or cells: MDA-MB-231
T3 sequence (Q9GZU1 whole entry): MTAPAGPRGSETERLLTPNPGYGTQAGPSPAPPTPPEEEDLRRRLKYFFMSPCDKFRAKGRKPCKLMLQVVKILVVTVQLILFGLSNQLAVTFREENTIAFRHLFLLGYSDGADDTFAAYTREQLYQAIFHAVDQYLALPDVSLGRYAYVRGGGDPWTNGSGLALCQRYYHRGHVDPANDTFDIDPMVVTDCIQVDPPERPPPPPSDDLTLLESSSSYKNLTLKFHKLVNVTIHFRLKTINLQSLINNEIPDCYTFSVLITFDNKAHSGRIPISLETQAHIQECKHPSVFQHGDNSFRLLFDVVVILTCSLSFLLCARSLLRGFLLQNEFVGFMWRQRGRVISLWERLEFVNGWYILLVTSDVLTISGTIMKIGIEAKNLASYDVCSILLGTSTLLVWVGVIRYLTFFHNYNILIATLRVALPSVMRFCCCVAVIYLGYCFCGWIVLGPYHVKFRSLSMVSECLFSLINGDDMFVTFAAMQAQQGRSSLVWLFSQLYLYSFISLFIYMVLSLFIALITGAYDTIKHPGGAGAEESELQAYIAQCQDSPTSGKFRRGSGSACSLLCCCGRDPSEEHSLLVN
Protocol: (§1) For whole-LE/LY manual patch-clamp recordings, cells were treated with 1 μM vacuolin-1 (> 2 h) at 37 °C and 5% CO2 and experiments performed as described previously[19],[25]. Compound was washed out before patch-clamp experimentation. Currents were recorded using an EPC-10 patch-clamp amplifier (HEKA, Lambrecht, Germany) and PatchMaster acquisition software (https://www.heka.com/). Data were digitized at 40 kHz and filtered at 2.8 kHz. Fast and slow capacitive transients were cancelled by the compensation circuit of the EPC-10 amplifier. All recordings were obtained at room temperature and were analyzed using PatchMaster acquisition software (https://www.heka.com/) and OriginPro 6.1 (https://www.originlab.com/). […] For all experiments, salt-agar bridges were used to connect the reference Ag–AgCl wire to the bath solution to minimize voltage offsets. Liquid junction potential was corrected. For the application of the small molecule inhibitors/flavonoids, cytoplasmic solution was completely exchanged by cytoplasmic solution containing compound. The current amplitudes at − 100 mV were extracted from individual ramp current recordings. Unless otherwise stated, cytoplasmic solution contained 140 mM K-MSA, 5 mM KOH, 4 mM NaCl, 0.39 mM CaCl2, 1 mM EGTA and 10 mM HEPES (pH was adjusted with KOH to 7.2). […]

MDA-MB-231 cells = assay: Wound healing/migration scratch assay; assay type: cell-based, human; conditions: various concentrations, o/n
Protocol: Wound healing assay was performed using 12-well plates (Sarstedt) at full confluency. Cells were incubated overnight (serum-free), and a scratch was performed using a yellow pipet tip. Pictures were taken at 0 h and after over night (o/n) incubation using an inverted microscope (Leica DM IL LED) and using a microscope camera (Leica DFC 3000 G).

hTRPML1 WT = target: T4, hTRPML1 WT (Homo sapiens, UniProt Q9GZU1); assay: Endolysosomal patch-clamp, vacuolin-enlarged endo-lysosomes from hTRPML1 WT expressing HEK293 cells; assay type: cell-based; conditions: activation with ML-SA1 (10 µM) or PI(3,5)P2 (1 µM), luminal pH 4.6
T4 construct: expressed in transfected cells; host or cells: HEK293
T4 sequence (Q9GZU1 whole entry): as above
Protocol: as §1

SMILES: COc1ccc2c(c1)CC[C@@H]1[C@@H]2CC[C@]2(C)[C@@H](O)CC[C@@H]12 [EDME, 17β-estradiol methyl ether]
- IC50 (hTRPML2): 3.8 µM
- IC50 at other TRP channels [1]: no meaningful IC50s
- IC50 at TPC2 (hTPC2L11A/L12A-RFP): no meaningful IC50s
- inhibition of TRPML1 activation in MDA-MB-231 endo-lysosomes (TRPML1): inhibits TRPML1 activation
- migration of MDA-MB-231 cells (MDA-MB-231 cells): reduced significantly
- inhibition of WT hTRPML1 current, endolysosomal patch-clamp (hTRPML1 WT): inhibitory effect
